From article PMC13144739, “Global analysis of cancer cell responses to USP9X inhibition” (The EMBO Journal, 2026)

Legend:
[1] = target: T1, USP9X catalytic domain (Homo sapiens, UniProt Q93008); assay: K48-linked di-ubiquitin cleavage assay; format: biochemical; details: reported USP9X inhibitors; Appendix Fig. S1B,E (diUb cleavage 150 µM, Ub-Rho)
T1 construct: His/SUMO (pOPIN-S vector) (N, cleaved yes); made in house; host or cells: E. coli BL21
T1 sequence (Q93008 1551-1970): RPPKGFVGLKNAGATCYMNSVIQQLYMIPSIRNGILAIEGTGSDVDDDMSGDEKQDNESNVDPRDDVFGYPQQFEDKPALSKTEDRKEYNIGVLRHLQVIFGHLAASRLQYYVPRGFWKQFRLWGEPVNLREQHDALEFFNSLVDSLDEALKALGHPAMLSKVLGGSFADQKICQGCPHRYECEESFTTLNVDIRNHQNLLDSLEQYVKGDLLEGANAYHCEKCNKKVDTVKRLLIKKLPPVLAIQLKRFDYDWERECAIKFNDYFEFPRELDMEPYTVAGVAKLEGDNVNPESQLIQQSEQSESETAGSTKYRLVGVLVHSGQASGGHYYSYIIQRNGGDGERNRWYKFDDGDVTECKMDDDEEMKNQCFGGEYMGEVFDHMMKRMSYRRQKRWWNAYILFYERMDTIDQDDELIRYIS
Experimental: For inhibitor activity assays, USP9X catalytic domain (di-ubiquitin cleavage assay: 750 nM, ubiquitin-probe assays: 2.5 µM) was pre-incubated with USP9X inhibitors for 30 min at ambient temperature and subsequently mixed with di-ubiquitin (final concentration 2 µM) in assay buffer (25 mM Tris [pH 8.0], 150 mM NaCl, 10 mM DTT) at pH 8.0 or was mixed with ubiquitin-propargylamide (Ub-PA)/ubiquitin-vinyl sulfonate (Ub-VS) probes at a final concentration of 10 µM in assay buffer. For both assays, the mixture was incubated over a time course, and the reaction was stopped by mixing samples with 2× LDS sample buffer (Invitrogen) supplemented with 3% (v/v) 2-mercaptoethanol. All protein samples were run on a 4–12% Bis-Tris SDS-PAGE gradient gel (Invitrogen) for 60 min at 140 V. The gel was stained with InstantBlue® (Abcam) and imaged.

[2] = tested on: human dermal fibroblasts (HDF); assay: IncuCyte live-cell imaging cell death, HDF; format: cell-based; details: 50 µM (Appendix Fig. S4E)
Experimental: Cells were seeded at varying densities (1000–8000 cells per well) after initial optimisation in a 96-well tissue culture-treated plate (Thermo Fisher Scientific). Cells were incubated o/n, and the next day, inhibitors and controls diluted in cell media were added to the cells to a final volume of 200 μL per well. Cell death was measured using PI (Sigma-Aldrich). Cells were imaged with four images per well every 2 h for up to 96 h using the IncuCyte live-cell analysis system (S3, Sartorius). Cell proliferation data were analysed using Microsoft Excel by normalising confluence to control conditions. For cell killing readouts, the number of PI-positive cells was normalised to the control conditions for each timepoint.

[3] = target: T1, USP9X catalytic domain; assay: SPR binding assay
Experimental: Next, the sample was desalted using PD midiTrap™ G-25 (GE Healthcare) columns following the manufacturer’s instructions and was further purified by SEC, concentrated, and stored at -80 °C. Enzyme activity was tested in a ubiquitin-probe assay. SPR experiments were performed on a Biacore 8 K+ instrument (Cytiva). USP9X catalytic domain with a C-terminal AviTag™ was immobilised in 10 mM HEPES, 150 mM NaCl at pH 7.4 on a Series S Sensor Chip SA (Cytiva) by coupling. […] Running buffer was supplemented with 2% (v/v) DMSO. Multi-cycle kinetics were performed with 120 s associations and 600 s dissociations at 30 µL/min with no further regeneration. Binding constants were determined in Biacore Insight evaluation software (v5.0.18) at steady state, taking the median response over a 5-s window beginning at 10 s before the end of the association phase. Final KD values are the mean of three independent experiments.

[4] = target: T1, USP9X catalytic domain; assay: Ub-Rho cleavage assay; format: biochemical; details: Ub-Rho cleavage, recombinant USP9X catalytic domain (WT)
Experimental: The reaction was stopped through the addition of 10 mM citric acid. The assay was performed in 384-well format with a total reaction volume of 16 µL. Data was collected using the ClarioSTAR plate reader (BMG Labtech) at an emission of 535 nm. […] IC50 values presented in our study are the mean of three independent biological repeats unless indicated otherwise.

SMILES | effects on the purified USP9X catalytic domain [1] | toxicity to HDFs [2] | Kd ([3]; SPR, steady state, mean of three repeats, read-out: KD (steady state affinity)) [µM] | SPR kinetic fitting (on-rate/off-rate) ([3]; compared with the WEHI compound series / WEHI-092) | IC50 [4] [µM]
CCCC(NC(=O)/C(C#N)=C/c1nc(Cl)ccc1Cl)c1ccc(OCCN2CCOCC2)cc1 (centres unmarked) [EOAI3402143] | no or weak effects | cytotoxic |  |  | 
O=C(c1ccc2[nH]ccc2c1)N1CCN(S(=O)(=O)c2ccc3c(c2)OCCO3)CC1 [WEHI-680] |  |  | 3.51 ± 0.58 | much faster off-rate | 4.3
O=S(=O)(c1ccc2c(c1)OCCO2)N1CCN(c2ccc(-c3ccccc3)nn2)CC1 [WEHI-871] |  |  |  |  | > 100
CCC[C@H](NC(=O)/C(C#N)=C/c1cccc(Br)n1)c1ccccc1 [WP1130] | no or weak effects | cytotoxic |  |  | 
